The record followed here is patent CN116444420A, “β-catenin/BCL9蛋白蛋白相互作用的小分子抑制剂及其应用” (Shanghai Pharmaceutical Industry Research Institute Co ltd, priority 2021, dated 2023).

For data set [1], the target named is T1, β-catenin/BCL9 protein-protein [β-catenin/BCL9蛋白-蛋白] (Homo sapiens, UniProt P35222).
T1 construct: β-catenin(1-781)
T1 sequence (P35222 1-781): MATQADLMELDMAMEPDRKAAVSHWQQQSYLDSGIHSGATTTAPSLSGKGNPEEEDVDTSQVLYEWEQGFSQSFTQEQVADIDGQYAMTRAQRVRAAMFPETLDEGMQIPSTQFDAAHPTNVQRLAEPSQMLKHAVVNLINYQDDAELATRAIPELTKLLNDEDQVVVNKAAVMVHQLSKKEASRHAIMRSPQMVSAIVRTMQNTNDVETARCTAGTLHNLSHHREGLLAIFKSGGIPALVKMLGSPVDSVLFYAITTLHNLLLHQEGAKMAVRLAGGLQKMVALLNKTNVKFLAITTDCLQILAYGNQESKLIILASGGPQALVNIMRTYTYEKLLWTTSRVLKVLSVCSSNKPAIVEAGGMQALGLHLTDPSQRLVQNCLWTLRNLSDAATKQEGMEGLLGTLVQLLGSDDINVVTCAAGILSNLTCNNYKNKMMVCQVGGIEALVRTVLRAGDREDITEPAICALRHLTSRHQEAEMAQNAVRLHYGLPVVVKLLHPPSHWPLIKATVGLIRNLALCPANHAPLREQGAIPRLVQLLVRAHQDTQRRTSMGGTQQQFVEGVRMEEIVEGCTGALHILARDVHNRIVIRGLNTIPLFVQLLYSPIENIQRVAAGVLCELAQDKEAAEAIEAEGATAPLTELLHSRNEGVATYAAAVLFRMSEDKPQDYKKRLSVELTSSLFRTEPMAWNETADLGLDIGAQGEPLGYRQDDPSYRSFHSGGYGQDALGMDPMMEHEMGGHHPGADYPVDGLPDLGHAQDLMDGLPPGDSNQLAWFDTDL
Kind of data set: β-catenin/BCL9 protein-protein affinity, fluorescence polarisation (Example 71). The note with it: better than compound c. It is filed as binding. Background: Polarisation of emitted light reports the rotation of a fluorescent probe.

Data set [2] can be described thus: Liver microsome metabolic stability (Example 75). It is filed as in vitro ADME. Conditions: 0.5 mg/mL liver microsomal protein, 1μM, NADPH, 37℃. In general terms: Microsomes from liver hold many membrane-bound enzymes, among them those of drug oxidation.
Data set [3] addresses T2, hERG potassium channel [hERG钾离子通道] (Homo sapiens, UniProt Q12809).
T2 construct: expressed in transfected cells; host or cells: HEK293 (stably transfected)
Kind of data set: hERG potassium channel, whole-cell patch clamp (Example 73). Type of data set: cell-based.

The subject of data set [4] is CT26 colon cancer cells in BALB/c mice [CT26结肠癌细胞]. Kind of data set: In vivo experiment 1: CT26 colon cancer mouse model, II-25 and II-27 (Example 76). The note with it: 30mg/kg once daily; for inhibition of tumour growth: after 5 days of dosing.
The test system of data set [5] is HCT-116, CT-26, SW480, A549, RKO cells [人结肠癌细胞HCT-116、人结肠癌细胞CT-26、人结肠癌细胞SW480、人肺癌细胞A549、人结肠腺癌细胞RKO]. In words: CCK-8 antiproliferative activity of II-39, cancer cell panel (Example 72, part 2). The note with it: 10μM. It is filed as cell-based, human.
The test system of data set [6] is CT26 colon cancer cells in BALB/c mice [CT26结肠癌细胞]. Kind of data set: In vivo experiment 2: CT26 colon cancer mouse model, II-39 (Example 76).
Data set [7] concerns CT-26 cells. In words: CCK-8 antiproliferative activity of II-39, CT-26. Type of data set: cell-based, human. The note with it: 10μM.
For data set [8], the system named is HEK293 human normal cells [HEK293人正常细胞]. The note with it: 10μM.
Where [9] appears, read: whole-cell patch clamp, HEK293 cells stably transfected, room temperature, read-out: hERG IC50.

Read-outs that look alike come from different tables or passages of the source.

T2 sequence (Q12809 whole entry): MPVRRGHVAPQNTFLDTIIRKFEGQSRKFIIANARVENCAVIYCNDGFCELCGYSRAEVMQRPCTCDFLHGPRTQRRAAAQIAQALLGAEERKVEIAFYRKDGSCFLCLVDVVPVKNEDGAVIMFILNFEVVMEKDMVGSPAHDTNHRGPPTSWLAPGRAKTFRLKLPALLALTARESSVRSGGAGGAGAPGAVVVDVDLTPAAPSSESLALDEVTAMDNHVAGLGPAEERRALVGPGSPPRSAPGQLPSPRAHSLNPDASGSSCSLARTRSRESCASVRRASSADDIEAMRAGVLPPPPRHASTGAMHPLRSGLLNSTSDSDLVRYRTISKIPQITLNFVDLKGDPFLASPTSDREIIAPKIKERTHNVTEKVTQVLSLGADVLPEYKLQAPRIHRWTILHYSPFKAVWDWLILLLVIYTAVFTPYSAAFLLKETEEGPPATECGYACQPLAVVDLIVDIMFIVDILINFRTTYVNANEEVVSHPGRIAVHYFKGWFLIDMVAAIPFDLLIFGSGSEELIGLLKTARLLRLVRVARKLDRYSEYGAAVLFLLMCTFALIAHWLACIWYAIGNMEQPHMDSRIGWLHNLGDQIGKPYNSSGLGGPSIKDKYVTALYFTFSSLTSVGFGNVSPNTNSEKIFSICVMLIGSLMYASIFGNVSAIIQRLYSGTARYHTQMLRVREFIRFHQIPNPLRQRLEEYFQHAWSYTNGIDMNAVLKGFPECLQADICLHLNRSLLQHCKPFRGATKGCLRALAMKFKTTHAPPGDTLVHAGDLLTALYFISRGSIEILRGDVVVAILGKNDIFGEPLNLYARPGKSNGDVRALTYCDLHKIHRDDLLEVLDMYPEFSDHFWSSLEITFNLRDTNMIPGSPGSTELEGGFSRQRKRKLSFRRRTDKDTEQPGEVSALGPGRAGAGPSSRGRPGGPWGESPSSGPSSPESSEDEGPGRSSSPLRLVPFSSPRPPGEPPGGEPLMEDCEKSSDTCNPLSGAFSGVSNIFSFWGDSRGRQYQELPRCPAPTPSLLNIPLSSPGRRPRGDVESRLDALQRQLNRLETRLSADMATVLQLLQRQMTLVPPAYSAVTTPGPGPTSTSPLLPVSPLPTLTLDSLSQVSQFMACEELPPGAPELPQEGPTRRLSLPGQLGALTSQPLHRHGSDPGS

One may read the IC50 as the concentration at which inhibition is half-maximal. Consider `CC(C)c1ccc(-c2cccc(S(=O)(=O)N3CCCC(c4cccc(OC(C)(C)C(=O)O)c4)C3)c2)cc1` (stereo not shown) [化合物II-13, 2-(3-(1-((4'-异丙基-[1,1'-联苯基]-3-基)磺酰基)哌啶-3-基)苯氧基)-2-甲基丙酸], for which the “affinity activity compared with reference compound c” value in data set [1] was “亲和活性更优”. For the same compound, the “liver microsome metabolic stability” value in data set [2] (Table 4) was “肝微粒体代谢稳定”. Also, the IC50 in data set [3] (setting [9]) was greater than 10 µM.
As for `Cc1ccc(-c2cccc(S(=O)(=O)N3CCCC(c4cccc(OC(C)(C)C(=O)N5CCNCC5)c4)C3)c2)cc1C.Cl` (stereo not shown) [化合物II-25, 4-(2-(3-(1-((3',4'-二甲基-[1,1'-联苯]-3-基)磺酰基)哌啶-3-基)苯氧基)-2-甲基丙酰基)哌嗪-1-氯化铵], the “affinity activity compared with reference compound c” value in data set [1] is on record as “亲和活性更优”. This compound also yielded an IC50 in data set [3] greater than 10 µM. Also, in data set [4], the tolerability / safety result is reported as “动物耐受,安全性良好” and the “inhibition of tumour growth” value is “可显著抑制小鼠体内肿瘤的生长”.
`Cc1ccc(-c2cccc(S(=O)(=O)N3CCCC(c4cccc(OC(C)(C)C(=O)NS(=O)(=O)c5ccccc5)c4)C3)c2)cc1C` (stereo not shown) [化合物II-27, 2-(3-(1-((3',4'-二甲基-[1,1'-联苯基]-3-基)磺酰基)哌啶-3-基)苯氧基)-2-甲基-N-(苯磺酰基))丙酰胺]: in data set [1], the “affinity activity compared with reference compound c” value is on record as “亲和活性更优”. Further, the “liver microsome metabolic stability” value in data set [2] (Table 4) is on record as “肝微粒体代谢稳定”. In addition, the IC50 in data set [3] (setting [9]) was greater than 10 µM. In data set [4], the tolerability / safety entry is given as “动物耐受,安全性良好” and the “inhibition of tumour growth” value is “可显著抑制小鼠体内肿瘤的生长”.
`CC(C)c1ccc(-c2cccc(S(=O)(=O)N3CCCC(c4cccc(OC(C)(C)C(=O)NS(=O)(=O)c5ccccc5)c4)C3)c2)cc1` (stereo not shown) [化合物II-28, 2-(3-(1-((4'-异丙基-[1,1'-联苯基]-3-基)磺酰基)哌啶-3-基)苯氧基)-2-甲基-N-(苯磺酰基)丙酰胺]: the “affinity activity compared with reference compound c” value in data set [1] is given as “亲和活性更优”. Further, in data set [2] (Table 4), the “liver microsome metabolic stability” value is recorded as “肝微粒体代谢稳定”. Besides, the IC50 in data set [3] (setting [9]) was greater than 10 µM.
Take `CC(C)c1ccc(-c2cccc(S(=O)(=O)N3CCCC(c4cccc(OC(C)(C)C(=O)NS(=O)(=O)c5ccc(C(F)(F)F)cc5)c4)C3)c2)cc1` (stereo not shown) [化合物II-39, 2-(3-(1-((4'-异丙基-[1,1'-联苯]-3-基)磺酰基)哌啶-3-基(苯氧基)-2-甲基-N-((4-(三氟甲基)苯基)磺酰)丙酰胺]: the anti-colon-cancer activity result in data set [5] was “表现出较好的抗结肠癌活性”. In data set [2] (Table 5), the “liver microsome metabolic stability” value is listed as “肝微粒体代谢稳定”. In data set [6] (II-39 30mg/kg i.p. once daily), the body weight result was “未观察到小鼠体重有明显减轻” and the tolerability / safety result is given as “动物耐受,安全性良好”. In addition, the “tumour inhibition in combination with PD-1 antibody” value in data set [6] (II-39 30mg/kg i.p. once daily + PD-1 antibody 10mg/kg i.p. twice a week) is given as “肿瘤得到进一步的抑制”. In data set [6] (II-39 30mg/kg intraperitoneal once daily), the “inhibition of colon cancer growth” value is “可以很好的抑制结肠癌的生长”. In data set [6] (combination: II-39 30mg/kg i.p. once daily + PD-1 antibody 10mg/kg i.p. twice a week), the TGI is listed as 81.1%. Further, in data set [7], the “antiproliferative activity compared with ICG-001” value was “显著的优于阳性对照药ICG-001”. The IC50 in data set [3] (setting [9]) was greater than 10 µM. Moreover, the “effect on normal cells” value in data set [8] is given as “没有影响”.
